These results are taken from patent publication US20250129052A1, “PYRAZINE COMPOUNDS FOR THE CONTROL OF INVERTEBRATE PESTS” (priority 2021, published 2025).

Molecules are shown by their SMILES.

What all share (format): in vivo
Data set [1] relates to Orchid thrips; Dichromothrips corbetti. The experiment in a line: B.6 Orchid thrips, floral-immersion technique. Conditions: 300 ppm; 72 hours after treatment. On the procedure:
B.6 ANAPCO (Orchid thrips; Dichromothrips corbetti)
Dichromothrips corbetti adults used for bioassay are obtained from a colony maintained continuously under laboratory conditions. For testing purposes, the test compound is diluted in a 1:1 mixture of acetone:water (vol:vol), plus Kinetic at a rate of 0.01% v/v.
Thrips potency of each compound is evaluated by using a floral-immersion technique. Each orchid petal is dipped into treatment solution and allowed to dry in Petri dishes. Treated petals are placed into individual re-sealable plastic along with about 20 adult thrips. All test arenas are held under dark condition and a temperature of about 28° C. for duration of the assay. The percent mortality is recorded 72 hours after treatment.

Data set [2] has as its system Black Bean Aphid; Aphis craccivora. Nature of the data set: B.7 Black bean aphid, sprayed potted bean plants. The note with it: 300 ppm; after 72 hours. How it is done:
B.7 APHICR (Black Bean Aphid; Aphis craccivora)
The active compound is dissolved at the desired concentration in a mixture of 1:1 (vol:vol) distilled water:acetone. Surfactant (Kinetic) is added at a rate of 0.01% (vol/vol). The test solution is prepared at the day of use.
Potted (Kord traditional square pots Size 3″ and 2.5″ in depth) bush beans are cleaned with the apical leaves removed using pointed forceps, leaving only the cotyledon leaves. Plants are inoculated with about 30 mixed-stage aphid colony 24 hours before spraying. Potted bean plants are sprayed with the test solutions using a DeVilbiss hand atomizer (20-30 psi). Treated plants are allowed to air-dry in the laboratory for about an hour before placing them inside the holding room maintained at 27° C., 50% RH and […] conditions. Stem of the treated bean plants are inserted in the slit of cut circle filter paper to catch the falling dead aphids. Assessment of population reduction (% mortality) is done after 72 hours.

For data set [3], the system named is green peach aphid (Myzus persicae). Nature of the data set: B.1 Green peach aphid, systemic, artificial diet in microtiter plates. The note with it: for mortality at 9.9 ppm / mortality at 7.9 ppm: read-out: % mortality in comparison to untreated controls, B.1; for mortality at 2500 ppm: 72 h, 3 days, aphid diet, read-out: mortality in comparison with untreated controls. The source says: B.1 Green Peach Aphid (Myzus persicae)
For evaluating control of green peach aphid (Myzus persicae) through systemic means, the test unit consisted of 96-well-microtiter plates containing liquid artificial diet under an artificial mem brane.
The compounds were formulated using a solution containing 75% v/v water and 25% v/v DMSO. Different concentrations of formulated compounds were pipetted into the aphid diet, using a custom built pipetter, at two replications.
After application, 5-8 adult aphids were placed on the artificial membrane inside the microtiter plate wells. The aphids were then allowed to suck on the treated aphid diet and incubated at about 23±1° C. and about 50±5% relative humidity for 3 days. Aphid mortality and fecundity was then visually assessed.

In data set [4] the test system is yellow fever mosquito (Aedes aegypti). The experiment in a line: whole plant or invertebrate. The note with it: 48 h, 2 days, larval mortality, read-out: mortality in comparison with untreated controls. On the procedure: B.5 Yellow Fever Mosquito (Aedes aegypti)
For evaluating control of yellow fever mosquito (Aedes aegypti) the test unit consisted of 96-well-microtiter plates containing 200 μl of tap water per well and 5-15 freshly hatched A. aegypti larvae.
The active compounds were formulated using a solution containing 75% (v/v) water and 25% (v/v) DMSO. Different concentrations of formulated compounds or mixtures were sprayed onto the insect diet at 2.5 μl, using a custom-built micro atomizer, at two replications.
After application, microtiter plates were incubated at 28±1° C., 80±5% RH for 2 days. Larval mortality was then visually assessed.

For data set [5], the system named is Southern Armyworm (Spodoptera eridania), 2nd Instar Larvae. Nature of the data set: B.4 Southern armyworm, 2nd instar larvae, sprayed lima bean plants. Conditions: 96 h, 4 days after treatment, foliar spray, read-out: mortality in comparison with untreated controls. How it is done: B.4. Southern Armyworm (Spodoptera eridania), 2nd Instar Larvae
The active compounds were formulated by a Tecan liquid handler in 100% cyclohexanone as a 10,000-ppm solution supplied in tubes. The 10,000-ppm solution was serially diluted in 100% cyclohexanone to make interim solutions. These served as stock solutions for which final dilutions were made by the Tecan in 50% acetone:50% water (v/v) into 10 or 20 ml glass vials. A non-ionic surfactant (Kinetic@) was included in the solution at a volume of 0.01% (v/v). The vials were then inserted into an automated electrostatic sprayer equipped with an atomizing nozzle for application to plants/insects. Lima bean plants (variety Sieva) were grown 2 plants to a pot and selected for treatment at the 1st true leaf stage. Test solutions were sprayed onto the foliage by an automated electrostatic plant sprayer equipped with an atomizing spray nozzle. The plants were dried in the sprayer fume hood and then removed from the sprayer. Each pot was placed into perforated plastic bags with a zip closure. Ten to 11 armyworm larvae were placed into the bag and the bags zipped closed. Test plants were maintained in a growth room at about 25° C. and about 20-40% relative humidity for 4 days, avoiding direct exposure to fluorescent light (14:10 light:dark photoperiod) to prevent trapping of heat inside the bags. Mortality and reduced feeding were assessed 4 days after treatment, compared to untreated control plants.

Data set [6] deals with boll weevil (Anthonomus grandis). Nature of the data set: B.3 Boll weevil, insect diet with eggs in microtiter plates. The note with it: for mortality at 2500 ppm: 120 h, read-out: mortality in comparison with untreated controls; for mortality at 7.9 ppm: read-out: % mortality in comparison to untreated controls, B.3. How it is done:
B.3 Boll Weevil (Anthonomus grandis)
For evaluating control of boll weevil (Anthonomus grandis), the test unit consisted of 96-well-microtiter plates containing an insect diet and 5-10 A. grandis eggs.
The compounds were formulated using a solution containing 75% v/v water and 25% v/v DMSO. Different concentrations of formulated compounds were sprayed onto the insect diet at 5 μl, using a custom-built micro atomizer, at two replications.
After application, microtiter plates were incubated at about 25±1° C. and about 75±5% relative humidity for 5 days. Egg and larval mortality was then visually assessed.

For data set [7], the system named is tobacco budworm (Heliothis virescens). Nature of the data set: B.2 Tobacco budworm, insect diet with eggs in microtiter plates. Conditions: 120 h, 5 days, egg and larval mortality, read-out: mortality in comparison with untreated controls. How it is done: B.2 Tobacco Budworm (Heliothis virescens)
For evaluating control of tobacco budworm (Heliothis virescens), the test unit consisted of 96-well-microtiter plates containing an insect diet and 15-25 H. virescens eggs.
The compounds were formulated using a solution containing 75% v/v water and 25% v/v DMSO. Different concentrations of formulated compounds were sprayed onto the insect diet at 10 μl, using a custom-built micro atomizer, at two replications.
After application, microtiter plates were incubated at about 28±1° C. and about 80±5% relative humidity for 5 days. Egg and larval mortality was then visually assessed.

As for `Cc1cnn(-c2nccnc2C(C)NC(=O)c2cc(C(F)(F)F)cc(C(F)(F)F)c2)n1` (centres unmarked) [WO 2021/037614 P1, reference compound], in data set [1], the “% mortality in comparison to untreated controls, B.6” value (from here on “% mortality in comparison … B.6”) turned out to be 0%. In addition, the “% mortality in comparison to untreated controls, B.7” value (“% mortality in comparison … B.7” below) in data set [2] turned out to be 0%. For the same compound, the mortality – broadly, the share of the test organisms that died – at 9.9 ppm in data set [3] worked out at 0%.

In the case of `CC(c1nccnc1-c1ncn(C(C)C)n1)N(C)C(=O)c1cc(Cl)cc(S(C)(=O)=O)c1` (centres unmarked) [Compound I1-5, 3-chloro-N-[1-[3-(1-isopropyl-1,2,4-triazol-3-yl)pyrazin-2-yl]ethyl]-N-methyl-5-methylsulfonyl-benzamide], the mortality at 2500 ppm in data set [4], in data set [6] and in data set [3] was at least 75% throughout. The mortality at 300 ppm in data set [5] is at least 75%.

On to `CC(NC(=O)c1cc(C(F)(F)F)cc(C(F)(F)F)c1)c1nccnc1-c1ncn(C)n1` (centres unmarked) [Compound I1-12], for which the mortality at 2500 ppm in data set [4], in data set [6], in data set [7] and in data set [3] was at least 75% each time. Further, the “% mortality in comparison … B.6” value in data set [1] came out at 100%. Besides, the mortality at 300 ppm in data set [5] is at least 75%. For the same compound, the “% mortality in comparison … B.7” value in data set [2] came to 100%. Also, the mortality at 9.9 ppm in data set [3] was found to be 100%.

As for `CC(NC(=O)c1cc(Cl)cc(C(F)(F)F)c1)c1nccnc1-c1ncn(CC2CC2(Cl)Cl)n1` (centres unmarked) [Compound I1-14, 3-chloro-N-[1-[3-[1-[(2,2-dichlorocyclopropyl)methyl]-1,2,4-triazol-3-yl]pyrazin-2-yl]ethyl]-5-(trifluoromethyl)benzamide], the mortality at 2500 ppm in data set [4], in data set [6], in data set [7] and in data set [3] was at least 75% in each case. Further, the mortality at 300 ppm in data set [5] is at least 75%.

Regarding `CC(NC(=O)c1cc(Br)cc(C(F)(F)F)c1)c1nccnc1-c1ncn(CC(F)(F)F)n1` (centres unmarked) [Compound I1-1, 3-bromo-N-[1-[3-[1-(2,2,2-trifluoroethyl)-1,2,4-triazol-3-yl]pyrazin-2-yl]ethyl]-5-(trifluoromethyl)benzamide], the mortality at 2500 ppm in data set [4], in data set [6], in data set [7] and in data set [3] was at least 75% throughout. Also, the mortality at 300 ppm in data set [5] was at least 75%.

Regarding `CC(NC(=O)c1cc(C(F)(F)F)cc(C(F)(F)F)c1)c1nccnc1-n1cncn1` (centres unmarked) [WO 2021/037614 P46, reference compound], the “% mortality in comparison … B.6” value in data set [1] is reported as 0%. The mortality at 7.9 ppm in data set [6] amounted to 50%. Also, in data set [2], the “% mortality in comparison … B.7” value turned out to be 50%. Also, in data set [3], the mortality at 7.9 ppm stood at 0% and the mortality at 9.9 ppm amounted to 25%.

`CC(NC(=O)c1cc(Cl)cc(C(F)(F)F)c1)c1nccnc1-c1ncn(CC=C(Cl)Cl)n1` (centres unmarked) [Compound I1-11, 3-chloro-N-[1-[3-[1-(3,3-dichloroallyl)-1,2,4-triazol-3-yl]pyrazin-2-yl]ethyl]-5-(trifluoromethyl)benzamide]: the mortality at 2500 ppm in data set [4], in data set [6] and in data set [7] was at least 75% each time.

Consider `CC(NC(=O)c1cc(Cl)cc(S(C)(=O)=O)c1)c1nccnc1-c1ncn(C(C)C)n1` (centres unmarked) [Compound I1-7, 3-chloro-N-[1-[3-(1-isopropyl-1,2,4-triazol-3-yl)pyrazin-2-yl]ethyl]-5-methylsulfonyl-benzamide], for which the mortality at 2500 ppm in data set [4], in data set [6] and in data set [3] was at least 75% in each case. Further, the mortality at 300 ppm in data set [5] is at least 75%.

For `CC(NC(=O)c1cc(C(F)(F)F)cc(C(F)(F)F)c1)c1nccnc1-c1ncn(CC(F)(F)F)n1` (centres unmarked) [Compound I1-13], the mortality at 2500 ppm in data set [4], in data set [6], in data set [7] and in data set [3] was at least 75% each time. Further, in data set [1], the “% mortality in comparison … B.6” value is listed as 100%. The mortality at 300 ppm in data set [5] is at least 75%. Further, the mortality at 7.9 ppm in data set [6] and in data set [3] was 100% each time.

Regarding `CC(NC(=O)c1cc(Cl)nc(Cl)c1)c1nccnc1-c1ncn(-c2ccccc2)n1` (centres unmarked) [Compound I2-1, 2,6-dichloro-N-[1-[3-(1-phenyl-1,2,4-triazol-3-yl)pyrazin-2-yl]ethyl]pyridine-4-carboxamide], the mortality at 2500 ppm in data set [4], in data set [6] and in data set [3] was at least 75% throughout.

As to `COc1ccc(Cn2cnc(-c3nccnc3C(C)NC(=O)c3cc(Cl)cc(C(F)(F)F)c3)n2)cc1` (centres unmarked) [Compound I1-4, 3-chloro-N-[1-[3-[1-[(4-methoxyphenyl)methyl]-1,2,4-triazol-3-yl]pyrazin-2-yl]ethyl]-5-(trifluoromethyl)benzamide], the mortality at 300 ppm in data set [5] is at least 75%. The mortality at 2500 ppm in data set [6] is at least 75%.
